Patent US20100016275A1, “NOVEL COMPOUND 395” (priority 2008, published 2010)

Key:
[1] = Bioavailability (F) in the rat; assay type: in vivo; details: plasma, 3 mg/kg; male rat, oral vs iv AUC, dose normalised
Text: Bioavailability (F) in the Rat
This describes the methods used to obtain in vivo pharmacokinetic parameters in the male rat. It is applicable for use with any compound but may need modification based on such parameters as solubility, assay sensitivity, anticipated clearance and half-life, when the default formulation, dose level or sampling intervals may be inappropriate. The method described here represents a standard approach from which justified and documented modifications can be made. This method also allows for single compounds or mixtures (cassettes) to be administered.
A standard dose solution of 1 mg·mL^−1 was prepared. The recommended dose vehicle (if the compound was not sufficiently soluble in isotonic saline) was 50% PEG 400:50% sterile water. The required mass of compound was dissolved in the PEG400 before addition of the water. […]
The concentration of the analyte(s) were determined in plasma quantitative by mass spectrometry.
Pharmacokinetic data analysis and tabulation was achieved using WinNonlin and Excel. […] Bioavailability (F) was calculated from the ratio of the iv and oral AUC (the integral of the plasma concentration time curve) once dose normalised.

human hepatocytes = test: Human hepatic intrinsic clearance (CLint) assay in human hepatocytes; assay type: in vitro ADME; details: human hepatocytes, protein free suspension buffer, pH 7.4, 37° C.
Text: The hepatic metabolic component of human clearance is predicted from scaled in vitro intrinsic clearance (CLint) data from human hepatocytes (see Chem Biol Interact. 2007, 168(1), 2-15) and from the extent of human blood binding, primarily due to plasma protein binding. The well stirred model of the liver is a model for predicting blood clearance in the liver from intrinsic clearance (CLint) determined using hepatocytes. (see Drug Metab Dispos. 2005, 33(9), 1304-11) The model is usually written as:
Human Hepatic Intrinsic Clearance (CLint) Assay
For the majority of drugs, a large component of their plasma clearance is contributed by hepatic metabolism. Intrinsic clearance (CLint) is a measure of the potential of a compound to undergo metabolism and can be related to hepatic clearance in vivo from a consideration of plasma protein binding and liver blood flow. Therefore, CLint may be used as an index of the relative metabolic stability of compounds within a project and compared with other external probe substrates. Furthermore, the measurement of CLint in vitro within a research project, where hepatic metabolic clearance is known to be an issue, may be a useful means of understanding the different pharmacokinetic behaviour of the compounds in vivo.
This following description outlines a method for estimating intrinsic clearance (CLint) from human hepatocyte incubations using suspension buffer containing no HSA (human serum albumin) and maintaining physiological conditions of pH 7.4.
Hepatocytes were prepared by a two-step in situ collagenase perfusion method of a portion of the human liver, suspended in protein free buffer (see below) and stored on ice, prior to incubation.
This method is based on the procedure of Seglen (Preparation of rat liver cells. I. Effect of Ca^2+ on enzymatic dispersion of isolated, perfused liver. Exptl. Cell Res., 1972, 74, p450 and preparation of isolated rat liver cells. Methods Cell Biol., 1976, 13, p 29) which itself was developed from the one step procedure of Berry and Friend (High-yield preparation of isolated rat liver parenchymal cells. J. Cell Biol., 1969, 43, p 506).
Suspension medium: 2.34 g Na HEPES, 2.0 g HSA fraction V, 0.4 g D-fructose, DMEM (1 L powder equivalent, Sigma; w/1 g.1^−1 glucose, w/Na pyruvate, w/o NaHCO3, w/o phenol red), made up to 1 L with Milli-Q water, pH to 7.4 with 1 M HCl. (Protein free suspension buffer is made omitting the 2.0 g HSA fraction V)
The capsule of a liver which has been perfused with digestion medium was cut open and the cells gently teased out into the medium. The cells were then passed through a mesh (approximately 250 μM) into a beaker containing 50 ml suspension medium. The mesh was rinsed through into the beaker with further suspension buffer to a final volume of 100 ml. The suspension was divided between two plastic 50 mL centrifuge tubes (pre-cooled on ice) and centrifuged at 50×g for 2 min at 4° C. The supernatants were decanted and the pellets re-suspended in protein free suspension buffer to the original volume. The centrifugation step was repeated and each pellet re-suspended in approximately 10 ml protein free suspension buffer. The suspensions were combined and the volume made up to 50 mL with protein free suspension buffer.
An aliquot of cell suspension (0.2 mL) was diluted with 0.2 ml protein free suspension buffer. To the diluted cells was added 0.2 mL trypan blue solution (0.4% w/v) followed by gentle mixing. After 1 min, a pasteur pipette was used to withdraw a sample and fill an Improved Neubauer Counting Chamber by capillary action. The cells were then counted (central square only) using an inverted microscope, viable cells being able to exclude the dye and non-viable cells being stained. The percentage of viable cells in the preparation was calculated thus: […]

bioavailability [1] [%]	melting point [°C]	Human hepatocyte Intrinsic-clearance assay CLint (human hepatocytes) [μL/min/10^6 cells]	Compound
49	116 to 116.5	–	C[C@@H](Nc1cc(NS(=O)(=O)N2CCC2)nc(SCc2cccc(F)c2F)n1)[C@@H](O)CO [Example 1, N-(2-[(2,3-difluorobenzyl)thio]-6-{[(1R,2R)-2,3-dihydroxy-1-methylpropyl]amino}pyrimidin-4-yl)azetidine-1-sulfonamide]
44	–	–	Cc1cccc(CSc2nc(N[C@H](C)CO)cc(NS(C)(=O)=O)n2)c1F [Example 39]
–	–	17	Cc1ccc(CSc2nc(N[C@H](C)CO)cc(NS(=O)(=O)N3CCC3)n2)c(F)c1C [Example 42]
